Assay results published in paper PMC9654711, “Neuroprotective Action of Coumarin Derivatives through Activation of TRKB-CREB-BDNF Pathway and Reduction of Caspase Activity in Neuronal Cells Expressing Pro-Aggregated Tau Protein” (International Journal of Molecular Sciences, 2022).

What was measured:
Type in all cases: cell-based, human
[1] = test system: p-TRKB (Y516 and Y817); test: Immunoblot of p-TRKB (Y516 and Y817); conditions: for p-TRKB Y516 level / p-TRKB Y817 level: 10 µM; for p-TRKB Y516 level: induced untreated 67%; for p-TRKB Y817 level: induced untreated 74%; for p-TRKB (Y516/Y817) level: BDNF 100 ng/mL, LMDS-1/2 10 μM, induced untreated 77–83%, Figure 6B
Protocol: (§1) ∆K280 tauRD-DsRed SH-SY5Y cells in 6-well plates (5 × 10^5/well) were treated with retinoic acid (10 µM) on day 1, followed by LMDS-1 or -2 (10 µM) and doxycycline (2 µg/mL) addition on day 2 as described. ERK inhibitor U0126 or PI3K inhibitor wortmannin (10 μM) (LC Laboratories, Woburn, MA, USA) was added on day 6. On day 8, the cells were collected for BDNF, BCL2, BAX and total/phosphorylated TRKB, ERK, AKT, CREB protein analyses as described.
(§2) ∆K280 tauRD-DsRed SH-SY5Y cells were lysed in buffer containing 50 mM Tris-HCl (pH 8.0), 150 mM NaCl, 1 mM EDTA (pH 8.0), 1 mM EGTA (pH 8.0), 0.1% SDS, 0.5% sodium deoxycholate, 1% Triton X-100 and protease (Sigma-Aldrich)/phosphatase (Roche, Basel, Switzerland) inhibitor cocktails. After two sonications with an interval of 30 min on ice, cell lysates were collected by centrifugation at 14,000× g for 30 min at 4 °C. Protein concentrations were determined using a Bradford assay (Bio-Rad, Hercules, CA, USA). Protein samples (25 µg) were separated by 10–12% SDS-PAGE and transferred to polyvinylidene difluoride (PVDF) membranes (Sigma-Aldrich). After blocking for 2 h with 10% skimmed milk or 5% BSA in 0.1% Tween 20 in Tris-buffered saline (TBST), the membrane was incubated with primary antibody against BDNF (1:500; Santa Cruz, Santa Cruz, CA, USA), BCL2 (1:500; BioVision), BAX (1:500; BioVision), TRKB (1:1000; Cell Signaling, Danvers, MA, USA), p-TRKB (Y516) (1:1000; Cell Signaling), p-TRKB (Y817) (1:1000; Millipore, Billerica, MA, USA), ERK (1:1000; Cell Signaling), p-ERK (T202/Y204) (1:500; Cell Signaling), AKT (1:1000; Cell Signaling), p-AKT (S473) (1:1000; Cell Signaling), CREB (1:1000; Santa Cruz), p-CREB (S133) (1:1000; Millipore), JNK (1:1000; Cell Signaling), p-JNK (T183/Y185) (1:1000; Cell Signaling) or loading control glyceraldehyde-3-phosphate dehydrogenase (GAPDH) (1:1000; MDBio, Taipei, Taiwan). After three washes with TBST, the immune complexes were detected using horseradish peroxidase-conjugated goat anti-mouse or goat anti-rabbit secondary IgG antibody (1:5000, GeneTex, Irvine, CA, USA) and enhanced chemiluminescence substrates luminol and peroxide (Millipore). The primary and secondary antibodies used were diluted with TBST. The chemiluminescent detection was performed on ImageQuant™ LAS 4000mini (GE Healthcare).

[2] = test system: p-JNK (T183/Y185); test: Immunoblot of p-JNK (T183/Y185); conditions: 10 µM; versus 107% untreated; p > 0.05
Protocol: (§3) ∆K280 tauRD-DsRed SH-SY5Y cells were lysed in buffer containing 50 mM Tris-HCl (pH 8.0), 150 mM NaCl, 1 mM EDTA (pH 8.0), 1 mM EGTA (pH 8.0), 0.1% SDS, 0.5% sodium deoxycholate, 1% Triton X-100 and protease (Sigma-Aldrich)/phosphatase (Roche, Basel, Switzerland) inhibitor cocktails. After two sonications with an interval of 30 min on ice, cell lysates were collected by centrifugation at 14,000× g for 30 min at 4 °C. Protein concentrations were determined using a Bradford assay (Bio-Rad, Hercules, CA, USA). Protein samples (25 µg) were separated by 10–12% SDS-PAGE and transferred to polyvinylidene difluoride (PVDF) membranes (Sigma-Aldrich). […] After three washes with TBST, the immune complexes were detected using horseradish peroxidase-conjugated goat anti-mouse or goat anti-rabbit secondary IgG antibody (1:5000, GeneTex, Irvine, CA, USA) and enhanced chemiluminescence substrates luminol and peroxide (Millipore). […]

[3] = test system: ΔK280 tauRD-DsRed SH-SY5Y folding reporter cells; test: High-content analysis of ΔK280 tauRD-DsRed fluorescence and cell number (folding reporter); conditions: BDNF at 100 ng/mL, LMDS-1/2 at 10 μM; untreated = 100%; Figure 6A
Protocol: On day 1, ∆K280 tauRD-DsRed SH-SY5Y cells were seeded in a 96-well plate (3 × 10^4/well), with retinoic acid (10 µM; Sigma-Aldrich) added to induce neuronal differentiation. […] […] For ROS measurement, dichloro-dihydro-fluorescein diacetate (DCFH-DA, 10 µM; Invitrogen, Carlsbad, CA, USA) was added to the cells on day 8 and incubated at 37 °C for 30 min.

[4] = test system: p-AKT (S473); test: Immunoblot of p-AKT (S473)
Protocol: as §1, §2

[5] = test system: BCL2; test: Immunoblot of BCL2; conditions: 10 µM; induced untreated 73%
Protocol: as §1, §3

[6] = test system: p-CREB (S133); test: Immunoblot of p-CREB (S133)
Protocol: as §1, §2

[7] = 10 µM, induced untreated 78%, Figure 5C
[8] = BDNF 100 ng/mL, LMDS-1/2 10 μM, induced untreated 72%, Figure 6B

SMILES	p-TRKB Y516 level [1]	p-TRKB Y817 level [1]	p-TRKB (Y516/Y817) level [1]	p-JNK (T183/Y185) expression [2]	DsRed fluorescence intensity [3]	p-AKT level ([4]; 10 µM plus wortmannin 10 μM)	p-AKT level ([4]; 10 µM, induced untreated 72%)	BCL2 level [5]	p-CREB level [6, 7]	p-CREB level [6, 8]
CCOc1ccc2cc(C(=O)c3ccccc3)c(=O)oc2c1 [LMDS-1]	92–93%	103–105%	96–104%	93–108%	111–112%	62–64%	96–100%	111–114%	105–108%	90–95%
O=C(c1ccccc1)c1cc2ccc(O)cc2oc1=O [LMDS-2]	92–93%	103–105%	96–104%	93–108%	111–112%	62–64%	96–100%	111–114%	105–108%	90–95%
